Structures can show the parent of a compound that is named as a salt.
Legend:
NEK1 = target: T1, NEK1 (Homo sapiens, UniProt Q96PY6); assay: Kinase selectivity assay (DiscoverX KinomeScreen), NEK1; assay type: binding; details: NEK1, 5 μM; read-out: % Control
T1 construct: purchased DiscoverX
Description: (§1) The compound of Example 33 was tested for off-target activity against a panel of fifty five kinases bearing functional or structural similarity to PLK1 at a concentration of 5 μM using the DiscoverX KinomeScreen assay.

HCT116 cells = assay: Effects on HCT116 colorectal cancer cell viability (cell titre blue, 72 hours); assay type: cell-based; details: Homo sapiens, HCT-116, HCT116 cell line
NEK5 = target: T2, NEK5 (Homo sapiens, UniProt Q6P3R8); assay: Kinase selectivity assay (DiscoverX KinomeScreen), NEK5; assay type: binding; details: NEK5, 5 μM; read-out: % Control
T2 construct: purchased DiscoverX
Description: as §1

PLK3 = target: T3, PLK3 (Homo sapiens, UniProt Q9H4B4); assay: Kinase selectivity assay (DiscoverX KinomeScreen), PLK3; assay type: binding; details: PLK3, 5 μM; read-out: % Control
T3 construct: purchased DiscoverX
T3 sequence (Q9H4B4 whole entry): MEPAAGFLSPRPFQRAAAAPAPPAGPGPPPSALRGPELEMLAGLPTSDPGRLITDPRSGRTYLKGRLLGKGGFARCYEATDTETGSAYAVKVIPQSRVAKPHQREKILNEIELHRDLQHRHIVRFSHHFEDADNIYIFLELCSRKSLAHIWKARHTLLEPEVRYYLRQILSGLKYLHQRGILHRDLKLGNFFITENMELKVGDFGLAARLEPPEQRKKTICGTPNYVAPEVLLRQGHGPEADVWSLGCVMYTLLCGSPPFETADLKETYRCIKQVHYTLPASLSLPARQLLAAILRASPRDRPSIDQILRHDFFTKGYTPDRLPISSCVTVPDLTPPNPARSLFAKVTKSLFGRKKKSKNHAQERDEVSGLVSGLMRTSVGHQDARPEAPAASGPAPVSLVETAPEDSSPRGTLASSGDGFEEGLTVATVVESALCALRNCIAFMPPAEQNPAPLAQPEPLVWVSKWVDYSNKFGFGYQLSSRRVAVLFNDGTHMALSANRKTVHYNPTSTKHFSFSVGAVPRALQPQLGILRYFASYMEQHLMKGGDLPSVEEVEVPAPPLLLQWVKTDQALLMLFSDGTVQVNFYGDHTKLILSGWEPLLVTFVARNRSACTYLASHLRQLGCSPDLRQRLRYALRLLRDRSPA
Description: as §1

AURKC = target: T4, AURKC (Homo sapiens, UniProt Q9UQB9); assay: Kinase selectivity assay (DiscoverX KinomeScreen), AURKC; assay type: binding; details: read-out: % Control
T4 construct: purchased DiscoverX
T4 sequence (Q9UQB9 whole entry): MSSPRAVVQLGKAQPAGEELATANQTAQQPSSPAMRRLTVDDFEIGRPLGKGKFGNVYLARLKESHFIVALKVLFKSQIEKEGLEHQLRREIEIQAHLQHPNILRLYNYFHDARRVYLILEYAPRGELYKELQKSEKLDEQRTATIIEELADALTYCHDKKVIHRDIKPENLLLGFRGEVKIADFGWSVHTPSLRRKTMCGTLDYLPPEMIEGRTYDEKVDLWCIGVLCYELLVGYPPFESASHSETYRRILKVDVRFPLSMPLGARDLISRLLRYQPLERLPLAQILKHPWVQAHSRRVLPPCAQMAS
Description: as §1

NEK10 = target: T5, NEK10 (Homo sapiens, UniProt Q6ZWH5); assay: Kinase selectivity assay (DiscoverX KinomeScreen), NEK10; assay type: binding; details: NEK10, 5 μM; read-out: % Control
T5 construct: purchased DiscoverX
Description: as §1

[1] = system: glioblastoma cell line 946370; assay: Glioblastoma cancer cell viability, cell line 946370; assay type: cell-based
Description: (§2) Assay to Measure the Effects of Compounds of the Invention on Glioblastoma Cancer Cell Viability
(§3) The compound of Example 33 was tested for inhibitory activity against the glioblastoma cell lines in Table 7 below.

ERN1 = target: T6, ERN1 (Homo sapiens, UniProt O75460); assay: Kinase selectivity assay (DiscoverX KinomeScreen), ERN1; assay type: binding; details: ERN1, 5 μM; read-out: % Control
T6 construct: purchased DiscoverX
T6 sequence (O75460 19-977): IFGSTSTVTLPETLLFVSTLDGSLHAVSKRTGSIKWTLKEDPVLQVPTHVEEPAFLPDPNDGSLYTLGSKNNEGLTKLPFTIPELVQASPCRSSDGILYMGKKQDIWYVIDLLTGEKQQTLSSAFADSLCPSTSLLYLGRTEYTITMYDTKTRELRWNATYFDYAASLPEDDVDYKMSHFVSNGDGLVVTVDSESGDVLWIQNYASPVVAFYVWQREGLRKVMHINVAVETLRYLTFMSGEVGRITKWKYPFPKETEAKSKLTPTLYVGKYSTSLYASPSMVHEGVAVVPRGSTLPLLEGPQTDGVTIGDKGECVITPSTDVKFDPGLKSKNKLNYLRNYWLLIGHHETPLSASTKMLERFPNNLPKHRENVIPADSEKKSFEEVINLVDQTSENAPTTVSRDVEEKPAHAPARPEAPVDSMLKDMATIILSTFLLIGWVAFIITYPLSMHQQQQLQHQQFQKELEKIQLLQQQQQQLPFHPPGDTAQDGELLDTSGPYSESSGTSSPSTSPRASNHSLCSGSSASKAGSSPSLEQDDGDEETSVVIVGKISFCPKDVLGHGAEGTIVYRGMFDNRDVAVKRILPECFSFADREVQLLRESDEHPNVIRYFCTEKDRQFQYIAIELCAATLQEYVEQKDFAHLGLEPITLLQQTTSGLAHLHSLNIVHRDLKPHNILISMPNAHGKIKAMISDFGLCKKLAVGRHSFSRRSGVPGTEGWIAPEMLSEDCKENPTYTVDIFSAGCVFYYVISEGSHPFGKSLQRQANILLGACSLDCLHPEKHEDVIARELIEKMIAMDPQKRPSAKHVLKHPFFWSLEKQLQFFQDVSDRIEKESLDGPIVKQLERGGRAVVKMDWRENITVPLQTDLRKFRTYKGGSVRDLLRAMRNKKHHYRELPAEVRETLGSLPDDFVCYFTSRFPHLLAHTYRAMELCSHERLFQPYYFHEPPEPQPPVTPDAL
Description: as §1

[2] = system: glioblastoma cell line 906868; assay: Glioblastoma cancer cell viability, cell line 906868; assay type: cell-based
Description: as §2, §3

EIF2AK1 = target: T7, EIF2AK1 (Homo sapiens, UniProt Q9BQI3); assay: Kinase selectivity assay (DiscoverX KinomeScreen), EIF2AK1; assay type: binding; details: EIF2AK1, 5 μM; read-out: % Control
T7 construct: purchased DiscoverX
T7 sequence (Q9BQI3 whole entry): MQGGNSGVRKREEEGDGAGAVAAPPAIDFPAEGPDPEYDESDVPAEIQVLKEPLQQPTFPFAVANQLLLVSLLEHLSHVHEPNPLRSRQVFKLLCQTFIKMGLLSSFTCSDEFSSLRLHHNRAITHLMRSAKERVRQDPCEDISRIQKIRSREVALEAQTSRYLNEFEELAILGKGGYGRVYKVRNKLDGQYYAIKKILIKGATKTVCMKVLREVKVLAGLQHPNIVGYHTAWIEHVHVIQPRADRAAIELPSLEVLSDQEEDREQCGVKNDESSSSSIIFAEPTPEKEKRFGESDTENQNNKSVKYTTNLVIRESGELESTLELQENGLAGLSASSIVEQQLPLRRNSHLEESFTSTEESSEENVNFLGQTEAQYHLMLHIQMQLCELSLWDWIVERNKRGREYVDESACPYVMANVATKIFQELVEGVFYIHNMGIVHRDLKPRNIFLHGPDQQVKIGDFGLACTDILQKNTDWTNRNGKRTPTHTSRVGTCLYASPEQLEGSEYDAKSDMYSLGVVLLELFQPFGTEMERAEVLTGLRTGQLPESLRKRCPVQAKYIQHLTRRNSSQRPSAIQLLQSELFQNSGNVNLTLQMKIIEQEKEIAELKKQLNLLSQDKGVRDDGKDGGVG
Description: as §1

CAMKK1 = target: T8, CAMKK1 (Homo sapiens, UniProt Q8N5S9); assay: Kinase selectivity assay (DiscoverX KinomeScreen), CAMKK1; assay type: binding; details: CAMKK1, 5 μM; read-out: % Control
T8 construct: purchased DiscoverX
T8 sequence (Q8N5S9 whole entry): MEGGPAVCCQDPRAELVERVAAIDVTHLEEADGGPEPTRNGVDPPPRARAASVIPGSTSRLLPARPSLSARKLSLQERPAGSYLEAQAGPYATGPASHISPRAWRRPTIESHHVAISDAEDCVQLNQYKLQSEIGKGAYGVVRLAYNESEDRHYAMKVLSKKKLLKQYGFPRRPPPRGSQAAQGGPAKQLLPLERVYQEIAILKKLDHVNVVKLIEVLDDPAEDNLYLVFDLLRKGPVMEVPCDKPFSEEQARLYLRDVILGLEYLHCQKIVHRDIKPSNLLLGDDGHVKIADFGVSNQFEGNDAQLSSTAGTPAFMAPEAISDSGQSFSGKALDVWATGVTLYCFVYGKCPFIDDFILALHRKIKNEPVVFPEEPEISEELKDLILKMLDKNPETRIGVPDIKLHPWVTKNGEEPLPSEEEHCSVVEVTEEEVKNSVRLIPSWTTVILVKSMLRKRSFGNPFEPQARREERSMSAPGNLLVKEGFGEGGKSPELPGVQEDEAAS
Description: as §1

WEE1 = target: T9, WEE1 (Homo sapiens, UniProt P30291); assay: Kinase selectivity assay (DiscoverX KinomeScreen), WEE1; assay type: binding; details: WEE1, 5 μM; read-out: % Control
T9 construct: purchased DiscoverX
Description: as §1

PLK1 = target: T10, PLK1 (Homo sapiens, UniProt P53350); assay: Kinase selectivity assay (DiscoverX KinomeScreen), PLK1; assay type: binding; details: PLK1, 5 μM; read-out: % Control
T10 construct: purchased DiscoverX
T10 sequence (P53350 whole entry): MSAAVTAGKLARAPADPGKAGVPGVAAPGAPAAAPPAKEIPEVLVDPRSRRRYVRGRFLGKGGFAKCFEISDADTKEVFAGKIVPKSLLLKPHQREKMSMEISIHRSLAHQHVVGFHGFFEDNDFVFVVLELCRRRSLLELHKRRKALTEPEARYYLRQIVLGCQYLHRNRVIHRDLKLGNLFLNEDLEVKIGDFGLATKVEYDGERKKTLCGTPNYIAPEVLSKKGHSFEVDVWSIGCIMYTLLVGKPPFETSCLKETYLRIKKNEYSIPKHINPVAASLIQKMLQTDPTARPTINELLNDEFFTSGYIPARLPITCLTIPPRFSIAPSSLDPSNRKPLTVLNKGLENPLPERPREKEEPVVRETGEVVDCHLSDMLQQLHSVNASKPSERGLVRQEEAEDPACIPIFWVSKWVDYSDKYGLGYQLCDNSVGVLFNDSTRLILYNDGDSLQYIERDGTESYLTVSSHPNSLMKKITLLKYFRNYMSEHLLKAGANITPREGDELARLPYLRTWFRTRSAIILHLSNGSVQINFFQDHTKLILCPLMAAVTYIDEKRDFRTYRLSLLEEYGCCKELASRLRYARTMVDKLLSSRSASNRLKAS
Description: as §1

T1 sequence (Q96PY6 whole entry): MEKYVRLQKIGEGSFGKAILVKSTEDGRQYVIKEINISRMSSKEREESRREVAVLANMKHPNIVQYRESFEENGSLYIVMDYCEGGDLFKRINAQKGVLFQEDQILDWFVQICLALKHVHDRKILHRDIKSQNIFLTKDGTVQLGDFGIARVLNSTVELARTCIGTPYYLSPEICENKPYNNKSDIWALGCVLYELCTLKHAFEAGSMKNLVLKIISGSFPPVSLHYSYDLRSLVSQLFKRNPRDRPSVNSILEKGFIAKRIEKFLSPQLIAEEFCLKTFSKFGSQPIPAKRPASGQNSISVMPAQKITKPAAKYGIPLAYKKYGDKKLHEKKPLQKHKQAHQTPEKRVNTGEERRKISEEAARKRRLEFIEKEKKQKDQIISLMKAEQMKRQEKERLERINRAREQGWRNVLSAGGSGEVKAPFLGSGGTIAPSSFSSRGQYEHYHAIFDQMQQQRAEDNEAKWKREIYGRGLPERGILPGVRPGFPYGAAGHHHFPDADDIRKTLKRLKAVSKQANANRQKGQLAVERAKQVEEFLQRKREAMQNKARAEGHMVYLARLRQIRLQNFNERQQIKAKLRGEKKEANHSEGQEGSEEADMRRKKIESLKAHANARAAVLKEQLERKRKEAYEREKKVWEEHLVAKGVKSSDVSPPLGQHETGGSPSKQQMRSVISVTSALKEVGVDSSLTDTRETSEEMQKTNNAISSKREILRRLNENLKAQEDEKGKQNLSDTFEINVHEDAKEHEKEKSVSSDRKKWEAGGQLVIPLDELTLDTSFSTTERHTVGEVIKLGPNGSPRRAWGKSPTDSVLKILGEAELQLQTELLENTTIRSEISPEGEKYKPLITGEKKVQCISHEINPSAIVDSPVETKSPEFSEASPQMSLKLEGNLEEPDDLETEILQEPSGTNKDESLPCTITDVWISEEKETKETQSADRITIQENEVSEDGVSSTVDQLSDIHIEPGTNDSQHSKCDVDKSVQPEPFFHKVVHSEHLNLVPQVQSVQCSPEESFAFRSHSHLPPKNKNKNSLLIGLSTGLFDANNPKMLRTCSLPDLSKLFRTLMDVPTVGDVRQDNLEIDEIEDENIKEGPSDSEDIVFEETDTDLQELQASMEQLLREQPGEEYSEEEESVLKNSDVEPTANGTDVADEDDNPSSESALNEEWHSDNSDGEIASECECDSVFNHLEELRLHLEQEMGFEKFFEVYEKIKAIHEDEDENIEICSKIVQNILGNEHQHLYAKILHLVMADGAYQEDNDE

CN(C)CCNC(=O)c1ccc(-c2ccc(-c3ccc(Cl)cc3)n2-c2ccccc2C(F)(F)F)cc1 [Example 33, 4-[5-(4-chlorophenyl)-1-[2-(trifluoromethyl)phenyl]pyrrol-2-yl]-N-[2-(dimethylamino)ethyl]benzamide Hydrochloride]
remaining activity at 5 µM (NEK1): 100% | GI50 (HCT116 cells): 10 nM | remaining activity at 5 µM (NEK5): 99% | remaining activity at 5 µM (PLK3): 74% | remaining activity at 5 µM (AURKC): 85% | remaining activity at 5 µM (NEK10): 94% | IC50 [1]: 1670 nM | remaining activity at 5 µM (ERN1): 74% | IC50 [2]: 252 nM | remaining activity at 5 µM (EIF2AK1): 98% | remaining activity at 5 µM (CAMKK1): 91% | remaining activity at 5 µM (WEE1): 98% | remaining activity at 5 µM (PLK1): 100%

— US11208405B2, “Pyrrole derivatives as PLK1 inhibitors” (SENTINEL ONCOLOGY LIMITED, priority 2017, dated 2021)
